Measurements reported in PMC7265341, “Quantifying CDK inhibitor selectivity in live cells” (Nature Communications, 2020).

Experiments:
Settings in all cases: 10µM
CDK11A/Cyclin L2 = molecular target: T1, CDK11A/Cyclin L2 (Homo sapiens, UniProt Q9UQ88); experiment: NanoBRET live-cell target engagement, CDK11A-NanoLuc/Cyclin L2 in HEK-293; assay type: binding
T1 sequence (Q9UQ88 1-783): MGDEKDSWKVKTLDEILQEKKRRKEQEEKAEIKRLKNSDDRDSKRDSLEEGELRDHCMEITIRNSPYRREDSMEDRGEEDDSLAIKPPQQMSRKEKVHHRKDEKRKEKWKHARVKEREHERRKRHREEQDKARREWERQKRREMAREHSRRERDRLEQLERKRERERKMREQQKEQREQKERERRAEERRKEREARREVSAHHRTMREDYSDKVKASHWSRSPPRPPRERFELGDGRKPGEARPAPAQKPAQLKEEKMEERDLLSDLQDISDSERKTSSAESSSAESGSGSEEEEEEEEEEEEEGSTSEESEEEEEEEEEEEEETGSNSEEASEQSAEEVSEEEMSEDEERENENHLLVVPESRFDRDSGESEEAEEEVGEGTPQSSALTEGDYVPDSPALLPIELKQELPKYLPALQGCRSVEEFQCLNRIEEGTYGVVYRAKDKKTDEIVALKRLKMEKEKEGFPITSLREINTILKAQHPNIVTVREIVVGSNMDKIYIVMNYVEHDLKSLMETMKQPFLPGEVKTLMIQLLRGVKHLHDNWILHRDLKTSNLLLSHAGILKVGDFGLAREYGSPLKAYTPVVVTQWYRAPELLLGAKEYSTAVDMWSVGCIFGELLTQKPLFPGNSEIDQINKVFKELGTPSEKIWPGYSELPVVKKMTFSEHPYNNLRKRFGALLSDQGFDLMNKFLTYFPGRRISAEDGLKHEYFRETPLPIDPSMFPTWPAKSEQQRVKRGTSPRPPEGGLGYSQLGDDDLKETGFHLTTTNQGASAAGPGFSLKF

CDK18/Cyclin Y = CDK18/Cyclin Y (Homo sapiens, UniProt Q07002); experiment: NanoBRET live-cell target engagement, CDK18-NanoLuc/Cyclin Y in HEK-293; assay type: binding
CDK11B/Cyclin L2 = CDK11B/Cyclin L2 (Homo sapiens, UniProt P21127); experiment: NanoBRET live-cell target engagement, CDK11B-NanoLuc/Cyclin L2 in HEK-293; assay type: binding
Chain of CDK11B/Cyclin L2 (P21127 1-782 isoform P21127-2): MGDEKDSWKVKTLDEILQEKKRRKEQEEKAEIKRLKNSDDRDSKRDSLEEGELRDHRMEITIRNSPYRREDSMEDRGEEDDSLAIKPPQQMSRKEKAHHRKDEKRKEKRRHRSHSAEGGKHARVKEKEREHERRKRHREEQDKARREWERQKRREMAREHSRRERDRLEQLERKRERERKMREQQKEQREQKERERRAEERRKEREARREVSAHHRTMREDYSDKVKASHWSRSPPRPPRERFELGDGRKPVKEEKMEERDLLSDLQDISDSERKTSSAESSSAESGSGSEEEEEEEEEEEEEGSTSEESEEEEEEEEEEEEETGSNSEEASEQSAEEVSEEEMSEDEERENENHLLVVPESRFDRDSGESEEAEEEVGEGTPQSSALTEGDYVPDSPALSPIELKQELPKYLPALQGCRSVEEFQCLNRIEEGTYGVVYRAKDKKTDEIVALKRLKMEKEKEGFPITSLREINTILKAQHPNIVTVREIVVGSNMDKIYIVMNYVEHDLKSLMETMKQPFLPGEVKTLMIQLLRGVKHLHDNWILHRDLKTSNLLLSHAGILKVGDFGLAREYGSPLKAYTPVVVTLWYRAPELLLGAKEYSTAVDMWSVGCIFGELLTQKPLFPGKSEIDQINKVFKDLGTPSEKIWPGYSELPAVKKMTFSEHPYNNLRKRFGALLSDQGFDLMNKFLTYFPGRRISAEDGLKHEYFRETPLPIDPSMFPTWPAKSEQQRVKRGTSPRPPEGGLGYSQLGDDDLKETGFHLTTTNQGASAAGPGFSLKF

CDK20/Cyclin H = CDK20/Cyclin H (Homo sapiens, UniProt Q8IZL9); experiment: NanoBRET live-cell target engagement, NanoLuc-CDK20/Cyclin H in HEK-293; assay type: binding
CDK3/Cyclin E1 = CDK3/Cyclin E1 (Homo sapiens, UniProt Q00526); experiment: NanoBRET live-cell target engagement, CDK3-NanoLuc/Cyclin E1 in HEK-293; assay type: binding
CDK5/CDK5R1 = CDK5/CDK5R1 (Homo sapiens, UniProt Q00535); experiment: NanoBRET live-cell target engagement, CDK5-NanoLuc/CDK5R1 in HEK-293; assay type: binding
CDK16/Cyclin Y = CDK16/Cyclin Y (Homo sapiens, UniProt Q00536); experiment: NanoBRET live-cell target engagement, CDK16-NanoLuc/Cyclin Y in HEK-293; assay type: binding
CDK15/Cyclin Y = CDK15/Cyclin Y (Homo sapiens, UniProt Q96Q40); experiment: NanoBRET live-cell target engagement, NanoLuc-CDK15/Cyclin Y in HEK-293; assay type: binding
CDK4/Cyclin D1 = CDK4/Cyclin D1 (Homo sapiens, UniProt P11802); experiment: NanoBRET live-cell target engagement, NanoLuc-CDK4/Cyclin D1 in HEK-293; assay type: binding
CDK17/Cyclin Y = CDK17/Cyclin Y (Homo sapiens, UniProt Q00537); experiment: NanoBRET live-cell target engagement, CDK17-NanoLuc/Cyclin Y in HEK-293; assay type: binding
CDK8/Cyclin C = CDK8/Cyclin C (Homo sapiens, UniProt P49336); experiment: NanoBRET live-cell target engagement, NanoLuc-CDK8/Cyclin C in HEK-293; assay type: binding
CDK13/Cyclin K = CDK13/Cyclin K (Homo sapiens, UniProt Q14004); experiment: NanoBRET live-cell target engagement, CDK13-NanoLuc/Cyclin K in HEK-293; assay type: binding
Chain of CDK13/Cyclin K (O75909 whole entry): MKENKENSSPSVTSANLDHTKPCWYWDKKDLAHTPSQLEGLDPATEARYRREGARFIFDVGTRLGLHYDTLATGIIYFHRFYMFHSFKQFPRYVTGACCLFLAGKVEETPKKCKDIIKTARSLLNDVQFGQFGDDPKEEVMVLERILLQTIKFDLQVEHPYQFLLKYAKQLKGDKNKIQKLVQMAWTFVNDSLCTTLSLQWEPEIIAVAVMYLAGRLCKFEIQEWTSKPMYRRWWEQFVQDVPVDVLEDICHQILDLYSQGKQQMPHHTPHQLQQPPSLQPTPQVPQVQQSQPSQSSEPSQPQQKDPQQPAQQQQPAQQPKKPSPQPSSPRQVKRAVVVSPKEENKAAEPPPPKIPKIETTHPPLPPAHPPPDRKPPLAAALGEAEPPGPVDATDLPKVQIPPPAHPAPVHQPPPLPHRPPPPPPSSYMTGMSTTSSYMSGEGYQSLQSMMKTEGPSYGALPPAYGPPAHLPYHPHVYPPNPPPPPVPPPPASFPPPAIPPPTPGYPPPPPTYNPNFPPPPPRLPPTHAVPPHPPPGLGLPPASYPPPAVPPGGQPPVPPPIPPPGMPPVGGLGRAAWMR
Chain of CDK13/Cyclin K (Q14004 other isoform, or with tags, fused parts or gaps): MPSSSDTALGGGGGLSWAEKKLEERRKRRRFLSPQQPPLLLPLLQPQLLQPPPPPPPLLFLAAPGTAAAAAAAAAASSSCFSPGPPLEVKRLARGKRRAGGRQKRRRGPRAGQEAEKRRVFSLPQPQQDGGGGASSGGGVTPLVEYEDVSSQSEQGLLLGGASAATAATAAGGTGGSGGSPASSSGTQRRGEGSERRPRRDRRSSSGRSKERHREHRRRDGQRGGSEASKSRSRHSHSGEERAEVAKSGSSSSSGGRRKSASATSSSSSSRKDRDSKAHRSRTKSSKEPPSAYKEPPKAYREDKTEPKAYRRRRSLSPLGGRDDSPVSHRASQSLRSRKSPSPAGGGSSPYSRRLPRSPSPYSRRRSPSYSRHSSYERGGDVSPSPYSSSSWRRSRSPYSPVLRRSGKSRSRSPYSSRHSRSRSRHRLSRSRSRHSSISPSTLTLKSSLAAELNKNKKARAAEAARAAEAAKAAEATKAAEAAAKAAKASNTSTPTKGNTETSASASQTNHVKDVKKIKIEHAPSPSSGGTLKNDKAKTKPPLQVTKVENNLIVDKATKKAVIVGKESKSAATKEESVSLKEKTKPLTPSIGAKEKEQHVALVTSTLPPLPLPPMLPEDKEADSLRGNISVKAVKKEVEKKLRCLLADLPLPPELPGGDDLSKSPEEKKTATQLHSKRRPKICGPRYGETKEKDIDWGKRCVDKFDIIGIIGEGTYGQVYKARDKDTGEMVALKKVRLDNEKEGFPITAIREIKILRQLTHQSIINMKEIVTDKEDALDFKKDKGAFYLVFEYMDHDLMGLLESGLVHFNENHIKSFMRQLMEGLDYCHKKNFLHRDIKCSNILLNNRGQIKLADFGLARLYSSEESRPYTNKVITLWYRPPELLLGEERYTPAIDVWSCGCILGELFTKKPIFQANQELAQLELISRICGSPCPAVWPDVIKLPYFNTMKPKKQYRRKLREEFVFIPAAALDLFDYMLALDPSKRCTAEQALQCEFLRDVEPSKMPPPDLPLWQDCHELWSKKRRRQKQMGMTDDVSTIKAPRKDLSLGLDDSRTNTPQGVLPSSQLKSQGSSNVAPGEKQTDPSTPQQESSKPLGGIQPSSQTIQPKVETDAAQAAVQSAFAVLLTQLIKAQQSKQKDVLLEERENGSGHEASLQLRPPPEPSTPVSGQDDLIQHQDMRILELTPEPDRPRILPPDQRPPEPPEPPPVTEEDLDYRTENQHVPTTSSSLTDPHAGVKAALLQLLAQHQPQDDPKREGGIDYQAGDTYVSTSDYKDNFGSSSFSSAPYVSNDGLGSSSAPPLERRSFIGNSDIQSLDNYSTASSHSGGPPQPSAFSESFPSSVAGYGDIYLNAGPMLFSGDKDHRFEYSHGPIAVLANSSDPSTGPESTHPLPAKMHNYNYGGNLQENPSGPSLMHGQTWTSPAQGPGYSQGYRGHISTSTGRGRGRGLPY

CDK6/Cyclin D1 = CDK6/Cyclin D1 (Homo sapiens, UniProt Q00534); experiment: NanoBRET live-cell target engagement, NanoLuc-CDK6/Cyclin D1 in HEK-293; assay type: binding
Chain of CDK6/Cyclin D1 (Q00534 whole entry): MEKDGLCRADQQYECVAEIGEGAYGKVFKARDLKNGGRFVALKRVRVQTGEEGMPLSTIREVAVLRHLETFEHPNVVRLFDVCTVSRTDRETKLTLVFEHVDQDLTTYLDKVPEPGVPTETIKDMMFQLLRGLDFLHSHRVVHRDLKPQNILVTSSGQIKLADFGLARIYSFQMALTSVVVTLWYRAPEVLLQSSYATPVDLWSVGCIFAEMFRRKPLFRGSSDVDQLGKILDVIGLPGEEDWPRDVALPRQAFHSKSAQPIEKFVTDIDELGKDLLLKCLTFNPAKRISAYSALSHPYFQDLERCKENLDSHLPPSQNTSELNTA
Chain of CDK6/Cyclin D1 (P24385 whole entry partner): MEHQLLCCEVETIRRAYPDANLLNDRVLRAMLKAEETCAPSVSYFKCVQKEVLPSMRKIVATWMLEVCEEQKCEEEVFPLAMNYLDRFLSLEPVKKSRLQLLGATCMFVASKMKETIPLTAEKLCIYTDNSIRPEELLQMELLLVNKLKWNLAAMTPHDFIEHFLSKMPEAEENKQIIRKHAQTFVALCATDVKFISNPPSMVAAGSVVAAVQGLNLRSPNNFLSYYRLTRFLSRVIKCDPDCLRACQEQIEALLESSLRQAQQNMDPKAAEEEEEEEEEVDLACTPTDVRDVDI

CDK2/Cyclin E1 = CDK2/Cyclin E1 (Homo sapiens, UniProt P24941); experiment: NanoBRET live-cell target engagement, CDK2-NanoLuc/Cyclin E1 in HEK-293; assay type: binding
CDK9/Cyclin K = CDK9/Cyclin K (Homo sapiens, UniProt P50750); experiment: NanoBRET live-cell target engagement, NanoLuc-CDK9/Cyclin K in HEK-293; assay type: binding
Chain of CDK9/Cyclin K (P50750 whole entry): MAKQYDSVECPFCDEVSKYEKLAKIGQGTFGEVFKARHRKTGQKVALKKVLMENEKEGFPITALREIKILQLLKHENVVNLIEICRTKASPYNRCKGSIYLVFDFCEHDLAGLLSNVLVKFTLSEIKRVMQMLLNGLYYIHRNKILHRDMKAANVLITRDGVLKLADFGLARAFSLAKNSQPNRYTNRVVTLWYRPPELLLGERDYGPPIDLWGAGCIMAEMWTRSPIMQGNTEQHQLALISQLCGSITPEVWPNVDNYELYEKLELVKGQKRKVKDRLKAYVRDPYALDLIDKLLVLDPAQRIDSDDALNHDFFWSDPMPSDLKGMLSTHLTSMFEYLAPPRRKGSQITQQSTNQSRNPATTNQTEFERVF
Chain of CDK9/Cyclin K (O75909 whole entry partner): as the sequence (O75909 whole entry) above

CDK14/Cyclin Y = CDK14/Cyclin Y (Homo sapiens, UniProt O94921); experiment: NanoBRET live-cell target engagement, CDK14-NanoLuc/Cyclin Y in HEK-293; assay type: binding
Chain of CDK14/Cyclin Y (O94921 whole entry): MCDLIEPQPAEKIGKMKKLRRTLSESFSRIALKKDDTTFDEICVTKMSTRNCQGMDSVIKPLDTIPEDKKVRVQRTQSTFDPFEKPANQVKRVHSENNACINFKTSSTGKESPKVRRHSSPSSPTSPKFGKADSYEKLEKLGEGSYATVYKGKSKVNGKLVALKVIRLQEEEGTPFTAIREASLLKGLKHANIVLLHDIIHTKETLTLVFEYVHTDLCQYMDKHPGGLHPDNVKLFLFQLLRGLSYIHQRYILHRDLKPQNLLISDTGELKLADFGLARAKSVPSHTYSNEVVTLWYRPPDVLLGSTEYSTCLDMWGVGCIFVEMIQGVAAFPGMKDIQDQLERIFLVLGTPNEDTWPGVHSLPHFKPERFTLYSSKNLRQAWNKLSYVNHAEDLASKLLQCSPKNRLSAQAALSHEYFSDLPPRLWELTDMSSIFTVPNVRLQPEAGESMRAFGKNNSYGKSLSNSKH
Chain of CDK14/Cyclin Y (Q8ND76 whole entry partner): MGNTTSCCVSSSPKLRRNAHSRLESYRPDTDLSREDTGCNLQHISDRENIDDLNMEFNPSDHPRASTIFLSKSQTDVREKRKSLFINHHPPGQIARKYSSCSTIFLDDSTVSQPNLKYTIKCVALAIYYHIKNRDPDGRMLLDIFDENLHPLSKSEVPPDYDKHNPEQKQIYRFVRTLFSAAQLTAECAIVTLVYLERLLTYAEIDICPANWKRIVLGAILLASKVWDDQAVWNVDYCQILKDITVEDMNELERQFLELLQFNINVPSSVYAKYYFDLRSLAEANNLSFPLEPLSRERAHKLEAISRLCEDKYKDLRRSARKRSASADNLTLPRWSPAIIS

CDK10/Cyclin L2 = CDK10/Cyclin L2 (Homo sapiens, UniProt Q15131); experiment: NanoBRET live-cell target engagement, CDK10-NanoLuc/Cyclin L2 in HEK-293
Chain of CDK10/Cyclin L2 (Q15131 whole entry): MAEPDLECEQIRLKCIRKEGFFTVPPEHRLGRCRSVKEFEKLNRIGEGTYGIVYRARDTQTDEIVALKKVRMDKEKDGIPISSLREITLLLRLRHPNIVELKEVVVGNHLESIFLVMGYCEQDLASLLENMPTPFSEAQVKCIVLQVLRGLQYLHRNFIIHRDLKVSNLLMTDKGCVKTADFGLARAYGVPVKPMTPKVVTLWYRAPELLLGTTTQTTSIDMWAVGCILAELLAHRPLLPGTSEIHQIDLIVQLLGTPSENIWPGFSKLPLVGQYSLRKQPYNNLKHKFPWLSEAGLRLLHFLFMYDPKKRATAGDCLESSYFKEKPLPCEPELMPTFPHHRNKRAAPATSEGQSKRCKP

CDK19/Cyclin C = CDK19/Cyclin C (Homo sapiens, UniProt Q9BWU1); experiment: NanoBRET live-cell target engagement, NanoLuc-CDK19/Cyclin C in HEK-293
CDK7 = CDK7 (Homo sapiens, UniProt P50613); experiment: NanoBRET live-cell target engagement, NanoLuc-CDK7 in HEK-293; assay type: binding
CDK12/Cyclin K = CDK12/Cyclin K (Homo sapiens, UniProt Q9NYV4); experiment: NanoBRET live-cell target engagement, CDK12-NanoLuc/Cyclin K in HEK-293; assay type: binding
CDK1/Cyclin E1 = CDK1/Cyclin E1 (Homo sapiens, UniProt P06493); experiment: NanoBRET live-cell target engagement, CDK1-NanoLuc/Cyclin E1 in HEK-293; assay type: binding

O=C1NCCc2[nH]c(-c3ccncc3)cc21 [PHA-767491]
CDK11a/L2 Inhibition at 10µM (%) (CDK11A/Cyclin L2; average of experiments): 24.0%
CDK11a/L2 Inhibition at 10µM (%) (CDK11A/Cyclin L2; independent experiment 1): 26.5%
CDK11a/L2 Inhibition at 10µM (%) (CDK11A/Cyclin L2; independent experiment 2): 21.5%
CDK18/Y Inhibition at 10µM (%) (CDK18/Cyclin Y; average of experiments): 28.3%
CDK18/Y Inhibition at 10µM (%) (CDK18/Cyclin Y; independent experiment 1): 21.8%
CDK18/Y Inhibition at 10µM (%) (CDK18/Cyclin Y; independent experiment 2): 34.7%
CDK11b/L2 Inhibition at 10µM (%) (CDK11B/Cyclin L2; average of experiments): 42.2%
CDK11b/L2 Inhibition at 10µM (%) (CDK11B/Cyclin L2; independent experiment 1): 43.3%
CDK11b/L2 Inhibition at 10µM (%) (CDK11B/Cyclin L2; independent experiment 2): 41.0%
CDK20/H Inhibition at 10µM (%) (CDK20/Cyclin H; independent experiment 1): 1.2%
CDK20/H Inhibition at 10µM (%) (CDK20/Cyclin H; independent experiment 2): 0.755%
CDK3/E1 Inhibition at 10µM (%) (CDK3/Cyclin E1; average of experiments): 31.6%
CDK3/E1 Inhibition at 10µM (%) (CDK3/Cyclin E1; independent experiment 1): 30.4%
CDK3/E1 Inhibition at 10µM (%) (CDK3/Cyclin E1; independent experiment 2): 32.8%
CDK5/CDK5R1 Inhibition at 10µM (%) (CDK5/CDK5R1; average of experiments): 37.1%
CDK5/CDK5R1 Inhibition at 10µM (%) (CDK5/CDK5R1; independent experiment 1): 38.6%
CDK5/CDK5R1 Inhibition at 10µM (%) (CDK5/CDK5R1; independent experiment 2): 35.7%
CDK16/Y Inhibition at 10µM (%) (CDK16/Cyclin Y; independent experiment 1): 25.1%
CDK16/Y Inhibition at 10µM (%) (CDK16/Cyclin Y; independent experiment 2): 16.6%
CDK15/Y Inhibition at 10µM (%) (CDK15/Cyclin Y; average of experiments): -2.1%
CDK15/Y Inhibition at 10µM (%) (CDK15/Cyclin Y; independent experiment 1): 6.2%
CDK15/Y Inhibition at 10µM (%) (CDK15/Cyclin Y; independent experiment 2): -10.5%
CDK4/D1 Inhibition at 10µM (%) (CDK4/Cyclin D1; average of experiments): 21.3%
CDK4/D1 Inhibition at 10µM (%) (CDK4/Cyclin D1; independent experiment 1): 22.1%
CDK4/D1 Inhibition at 10µM (%) (CDK4/Cyclin D1; independent experiment 2): 20.6%
CDK17/Y Inhibition at 10µM (%) (CDK17/Cyclin Y; average of experiments): 24.8%
CDK17/Y Inhibition at 10µM (%) (CDK17/Cyclin Y; independent experiment 1): 31.6%
CDK17/Y Inhibition at 10µM (%) (CDK17/Cyclin Y; independent experiment 2): 18.1%
CDK8/C Inhibition at 10µM (%) (CDK8/Cyclin C; average of experiments): 97.7%
CDK8/C Inhibition at 10µM (%) (CDK8/Cyclin C; independent experiment 1): 98.5%
CDK8/C Inhibition at 10µM (%) (CDK8/Cyclin C; independent experiment 2): 96.9%
CDK13/K Inhibition at 10µM (%) (CDK13/Cyclin K; average of experiments): 11.6%
CDK13/K Inhibition at 10µM (%) (CDK13/Cyclin K; independent experiment 1): 14.1%
CDK13/K Inhibition at 10µM (%) (CDK13/Cyclin K; independent experiment 2): 9.2%
CDK6/D1 Inhibition at 10µM (%) (CDK6/Cyclin D1; average of experiments): 19.5%
CDK6/D1 Inhibition at 10µM (%) (CDK6/Cyclin D1; independent experiment 1): 12.0%
CDK6/D1 Inhibition at 10µM (%) (CDK6/Cyclin D1; independent experiment 2): 27.0%
CDK2/E1 Inhibition at 10µM (%) (CDK2/Cyclin E1; average of experiments): 26.7%
CDK2/E1 Inhibition at 10µM (%) (CDK2/Cyclin E1; independent experiment 1): 26.7%
CDK2/E1 Inhibition at 10µM (%) (CDK2/Cyclin E1; independent experiment 2): 26.6%
CDK9/K Inhibition at 10µM (%) (CDK9/Cyclin K; average of experiments): 95.5%
CDK9/K Inhibition at 10µM (%) (CDK9/Cyclin K; independent experiment 1): 96.2%
CDK9/K Inhibition at 10µM (%) (CDK9/Cyclin K; independent experiment 2): 94.7%
CDK14/Y Inhibition at 10µM (%) (CDK14/Cyclin Y; average of experiments): 13.9%
CDK14/Y Inhibition at 10µM (%) (CDK14/Cyclin Y; independent experiment 1): 16.7%
CDK14/Y Inhibition at 10µM (%) (CDK14/Cyclin Y; independent experiment 2): 11.1%
CDK10/L2 Inhibition at 10µM (%) (CDK10/Cyclin L2; average of experiments): 11.0%
CDK10/L2 Inhibition at 10µM (%) (CDK10/Cyclin L2; independent experiment 1): 18.5%
CDK10/L2 Inhibition at 10µM (%) (CDK10/Cyclin L2; independent experiment 2): 3.5%
CDK19/C Inhibition at 10µM (%) (CDK19/Cyclin C; average of experiments): 90.8%
CDK19/C Inhibition at 10µM (%) (CDK19/Cyclin C; independent experiment 1): 91.1%
CDK19/C Inhibition at 10µM (%) (CDK19/Cyclin C; independent experiment 2): 90.5%
CDK7 Inhibition at 10µM (%) (CDK7; average of experiments): 26.3%
CDK7 Inhibition at 10µM (%) (CDK7; independent experiment 1): 26.2%
CDK7 Inhibition at 10µM (%) (CDK7; independent experiment 2): 26.4%
CDK12/K Inhibition at 10µM (%) (CDK12/Cyclin K; average of experiments): 18.3%
CDK12/K Inhibition at 10µM (%) (CDK12/Cyclin K; independent experiment 1): 19.8%
CDK12/K Inhibition at 10µM (%) (CDK12/Cyclin K; independent experiment 2): 16.8%
CDK1/E1 Inhibition at 10µM (%) (CDK1/Cyclin E1; average of experiments): 20.9%
CDK1/E1 Inhibition at 10µM (%) (CDK1/Cyclin E1; independent experiment 1): 21.6%
CDK1/E1 Inhibition at 10µM (%) (CDK1/Cyclin E1; independent experiment 2): 20.1%
